Laboratory results as given in PMC7747594, “Protease-activated receptor-2 ligands reveal orthosteric and allosteric mechanisms of receptor inhibition” (Communications Biology, 2020).
Values joined by “and” are separate entries in the source; they are usually repeats but may differ in a detail not shown here. Equal values may be shown once.

How the values were obtained:
hPAR2 = target: T1, hPAR2 (Homo sapiens, UniProt P55085); assay: Ca^2+ flux assay, inhibition of tryptase activation in 1321N1-hPAR2 cells; assay type: cell-based; settings: 1 µM Vorapaxar
T1 sequence (P55085 26-397): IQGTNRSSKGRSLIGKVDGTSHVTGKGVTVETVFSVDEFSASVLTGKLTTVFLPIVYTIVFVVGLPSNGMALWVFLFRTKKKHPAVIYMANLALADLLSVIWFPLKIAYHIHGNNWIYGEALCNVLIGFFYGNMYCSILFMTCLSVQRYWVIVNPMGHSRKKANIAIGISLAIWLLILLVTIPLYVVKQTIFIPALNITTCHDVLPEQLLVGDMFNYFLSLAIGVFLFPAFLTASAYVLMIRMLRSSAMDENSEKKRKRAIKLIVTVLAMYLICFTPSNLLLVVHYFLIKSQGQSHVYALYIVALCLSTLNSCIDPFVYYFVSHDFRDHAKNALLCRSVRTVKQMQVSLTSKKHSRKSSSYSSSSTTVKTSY
Description: For evaluation of Ca^2+ mobilisation, 1321N1-hPAR2 cells were seeded in 384-well CellBIND plates (Corning) at 4000 cells per well in DMEM containing 10% FBS and incubated for 18–24 hours at 37 °C, 5% CO2 and 95% humidity. Cells were loaded with Fluo-8 NW calcium dye (AAT Bioquest) for 30 min at 37 °C before compounds in Hank’s balanced salt solution (HBSS, ThermoFisher Scientific) with 20 mM HEPES (ThermoFisher Scientific), 0.1% bovine serum albumin (BSA, Sigma) and 0.5% DMSO were added and simultaneously evaluated for changes in intracellular [Ca^2+] using FLIPR TETRA (Molecular Devices) to detect agonism. For each concentration, the difference between the maximum peak Ca^2+ response and baseline response is reported. […] Inhibition of Ca^2+ release on rat PAR2 was measured in the same way using 10 000 KNRK cells per well seeded in poly-D-lysine coated 384-well plates (Greiner), 30 min preincubation with the compound before activation of PAR2 with EC80 of SLIGRL-NH2 (120 µM) and real-time detection of Ca^2+. […] Intracellular [Ca^2+] flux was measured using FLIPR TETRA (Molecular Devices) and the difference between the maximum peak Ca^2+ response and baseline response is reported.

neutrophils = assay: Immunohistochemistry, neutrophil elastase-positive (NE+ve) neutrophils in rat paw; assay type: in vivo; settings: for NE +ve cells (% max): 2f-induced rat paw oedema, individual animals (Figure 5h); for decrease of NE+ve cells by 2f-LIGRLO-NH2: pre-treatment, 30 min
Description: Tissues were then embedded with Optimal Cutting Temperature compound (OCT, Sakura Finetek, USA) and stored at −80 °C before making cryo-sections for histological analysis. Frozen sections (5 µm) were made using a cryostat-microtome (Leica Biosystems, Germany). […] Slides were then dehydrated and mounted in DPX mountant (Sigma-Aldrich, USA). For immunohistochemistry, slides were briefly rinsed with PBS to remove OCT. Except for tryptase staining, antigen retrieval was performed by incubating slides in citrate buffer (0.01 M, pH 6) at 95 °C for 20 min. They were then cooled down briefly and incubated with blocking medium (PBS, 0.1% Triton X-100, 10% horse serum) for 1 h at room temperature in a humidity chamber. Samples were incubated with primary antibody medium (PBS, 0.1% Triton X-100, 4% horse serum; 1:100 primary antibody including – histamine, neutrophil elastase or ED1 antibodies) overnight at 4 °C. The next day, samples were washed with PBS and incubated with the secondary antibody medium (PBS, 0.1% Triton X-100, 4% horse serum, detection antibody 1:200) for 2 h at room temperature. For tryptase staining, slides were incubated with primary antibody medium (as above with tryptase antibody at 1:100 dilution) for 4 h, then the secondary antibody medium for 2 h. Finally, slides were dried, counterstained with DAPI (Invitrogen, Australia), and sealed with clear nail polish. Primary antibodies for tryptase (AA1, ab2378, Abcam, Australia), histamine (H7403, Sigma-Aldrich, USA), neutrophil elastase (ab21595, Abcam, Australia) and ED1 (ab31630, Abcam, Australia) were purchased from commercial sources. Secondary detection antibody was purchased from Abcam, Australia.

[1] = target: T2, PAR2 stabilised receptor (StaR) (Homo sapiens, UniProt P55085); settings: SPR, previously reported; cited from earlier work
T2 sequence (P55085 55-377): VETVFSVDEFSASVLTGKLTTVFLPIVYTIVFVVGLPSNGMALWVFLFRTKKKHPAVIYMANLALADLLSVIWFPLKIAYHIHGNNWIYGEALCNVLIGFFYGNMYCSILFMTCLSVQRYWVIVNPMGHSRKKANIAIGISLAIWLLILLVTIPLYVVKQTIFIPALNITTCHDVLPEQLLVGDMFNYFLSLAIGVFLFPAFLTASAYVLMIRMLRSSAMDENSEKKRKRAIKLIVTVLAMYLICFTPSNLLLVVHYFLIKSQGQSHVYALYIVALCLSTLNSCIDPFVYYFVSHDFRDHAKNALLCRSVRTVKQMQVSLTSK

In the case of `C[C@@H](C1CCCCC1)n1c(-c2cc3c(cc2Br)OCO3)nc2cc(C(=O)Nc3ccncc3)ccc21` [AZ2623], the “inhibition of tryptase-induced Ca^2+ response” value (hPAR2) was “only partial inhibition at low”.
For `C[C@@H](C1CCCCC1)n1c(-c2cc3c(cc2Br)OCO3)nc2cc(C(=O)Nc3ccc(C#N)cc3)ccc21` [AZ3451], the “NE +ve cells (% max)” value (neutrophils) was 135.782 % max and 55.9949 % max and 85.0488 % max and 57.3155 % max, the “decrease of NE+ve cells by 2f-LIGRLO-NH2” value (neutrophils) was “partially inhibited” and the “inhibition of tryptase-induced Ca^2+ response” value (hPAR2) was “only partial inhibition at low”.
For `CCCc1cc(F)ccc1C(O)c1ncc[nH]1` (stereo not shown) [AZ8838], the residence time [1] is given as “about 84 min”, the “NE +ve cells (% max)” value (neutrophils) is given as 83.5679 % max and 62.4433 % max and 139.912 % max and 107.932 % max and 66.1651 % max and the “decrease of NE+ve cells by 2f-LIGRLO-NH2” value (neutrophils) is given as “partially inhibited”.
